Laboratory results as given in PMC3198734 (PLoS ONE, 2011).
Where no end group is shown, it is not given here.

Experiments:
Acinetobacter baumannii = format: cell-based; settings: data not shown
[1] = tested on: IL-1β, GM-CSF, KC, RANTES, MIP-1α in BAL fluid; format: in vivo, BALB/c mice

| Substance | antimicrobial activity of the preparation (Acinetobacter baumannii) | BAL fluid concentration of GM-CSF compared with PR/8 infected control animals ([1]; mouse, in vivo) | BAL fluid concentration of IL-1β compared with PR/8 infected control animals ([1]; mouse, in vivo) | BAL fluid concentration of KC ([1]; mouse, in vivo) | BAL fluid concentration of MIP-1α (non-significant increase after infection) ([1]; mouse, in vivo) | BAL fluid concentration of RANTES ([1]; mouse, in vivo) | BAL fluid cytokine concentrations in the absence of influenza virus infection ([1]; uninfected mice, nebulized peptide, BAL on day 3) |
| --- | --- | --- | --- | --- | --- | --- | --- |
| GLLRKGGEKIGEKLKKIGQKIKNFFQKLVPQPEQ [mCRAMP, mouse cathelicidin peptide] | confirmed |  |  |  |  |  |  |
| LLGDFFRKSKEKIGKEFKRIVQRIKDFLRNLVPRTES [LL-37, human cathelicidin peptide generated from hCAP-18] | confirmed | significantly lower | significantly lower | unchanged compared with uninfected controls | this increase was ameliorated | unchanged compared with uninfected controls | did not significantly alter cytokine concentrations |
| RGGRLCYCRRRFCVCVGR-NH2 (also: bicyclic or more (positions not given here)) [Protegrin-1, porcine neutrophil-derived cathelicidin peptide with two disulfide bridges] | confirmed |  |  |  |  |  |  |
